The text below walks through data of patent publication US12435080B2, “sGC stimulators” (Tisento Therapeutics Inc., priority 2016, dated 2025).

The target of the experiment is T1, sGC enzyme (Homo sapiens, UniProt Q02108+Q02153).
T1 construct: incorporated into these cells detect cGMP formed by the compounds stimulating the sGC enzyme; host or cells: HEK293 cells stably expressing GloSensor 40F cGMP biosensor
T1 sequence (Q02153 1-619): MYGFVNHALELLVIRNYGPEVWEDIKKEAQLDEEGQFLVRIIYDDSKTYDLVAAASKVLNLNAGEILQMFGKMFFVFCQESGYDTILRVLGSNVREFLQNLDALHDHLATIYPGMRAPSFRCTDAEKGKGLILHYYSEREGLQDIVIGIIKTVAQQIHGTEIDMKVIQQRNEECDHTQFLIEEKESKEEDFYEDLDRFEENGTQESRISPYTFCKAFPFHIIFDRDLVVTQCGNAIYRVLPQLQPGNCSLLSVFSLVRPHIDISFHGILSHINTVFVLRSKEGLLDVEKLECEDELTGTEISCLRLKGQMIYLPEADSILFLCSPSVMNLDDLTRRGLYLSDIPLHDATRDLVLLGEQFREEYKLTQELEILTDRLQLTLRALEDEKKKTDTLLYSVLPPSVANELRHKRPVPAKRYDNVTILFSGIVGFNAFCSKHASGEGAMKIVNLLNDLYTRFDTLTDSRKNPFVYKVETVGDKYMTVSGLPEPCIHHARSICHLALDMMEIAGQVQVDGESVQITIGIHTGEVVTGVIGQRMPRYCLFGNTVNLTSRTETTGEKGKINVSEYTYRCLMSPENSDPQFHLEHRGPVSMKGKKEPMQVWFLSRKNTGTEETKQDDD
T1 sequence (Q02108 1-690): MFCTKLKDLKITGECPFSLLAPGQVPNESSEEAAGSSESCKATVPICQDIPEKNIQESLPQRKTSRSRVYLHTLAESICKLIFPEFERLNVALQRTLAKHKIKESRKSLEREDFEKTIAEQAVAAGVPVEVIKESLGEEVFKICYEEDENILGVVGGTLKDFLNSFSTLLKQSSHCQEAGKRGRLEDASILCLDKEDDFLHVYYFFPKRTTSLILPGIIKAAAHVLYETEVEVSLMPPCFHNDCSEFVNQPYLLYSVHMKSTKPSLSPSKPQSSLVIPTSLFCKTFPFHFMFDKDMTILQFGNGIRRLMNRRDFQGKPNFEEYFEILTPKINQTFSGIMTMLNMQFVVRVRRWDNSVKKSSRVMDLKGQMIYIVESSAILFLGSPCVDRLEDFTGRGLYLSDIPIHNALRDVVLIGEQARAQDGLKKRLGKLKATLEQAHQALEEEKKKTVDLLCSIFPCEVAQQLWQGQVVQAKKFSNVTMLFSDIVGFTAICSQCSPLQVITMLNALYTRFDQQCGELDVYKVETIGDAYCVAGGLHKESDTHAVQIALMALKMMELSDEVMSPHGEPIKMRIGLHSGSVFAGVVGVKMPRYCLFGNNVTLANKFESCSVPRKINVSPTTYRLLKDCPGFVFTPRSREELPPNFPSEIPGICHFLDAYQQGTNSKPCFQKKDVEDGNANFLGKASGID
The experiment can be described thus: cGMP GloSensor cell-based assay, 384-well format. As to conditions: HEK293 cells expressing GloSensor 40F cGMP; 10 μM DETA-NONOate; normalized to 30 μM Compound Y; compounds in Table IA; read-out: Glo-sensor AbsEC50. A digest of the protocol: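 HEK293 cells expressing GloSensor 40F cGMP luciferase biosensor, preloaded with 2 mM GloSensor substrate for 90 min at 25 °C. Endpoint luminescence read after 55 min compound incubation at room temperature.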
As to `CC(=O)Nc1n[nH]c(-c2nn(Cc3ccccc3F)c3ncccc23)n1` [Compound I-103], the EC50 fell in the range of 100 to 1000 nM. As to `OC1(c2n[nH]c(-c3nn(Cc4ccccc4F)c4ncccc34)n2)CC1` [Compound I-104, 1-(5-(1-(2-Fluorobenzyl)-1H-pyrazolo[3,4-b]pyridin-3-yl)-1H-1,2,4-triazol-3-yl)cyclopropanol], the EC50 is less than 100 nM. Consider `CC(O)c1n[nH]c(-c2nn(Cc3ccccc3F)c3ncccc23)n1` (centres unmarked) [Compound I-107, 1-(5-(1-(2-Fluorobenzyl)-1H-pyrazolo[3,4-b]pyridin-3-yl)-1H-1,2,4-triazol-3-yl)ethanol], for which the EC50 is less than 100 nM.

For the compound `COCc1n[nH]c(-c2nn(Cc3ccccc3F)c3ncccc23)n1` [Compound I-112, 1-(2-Fluorobenzyl)-3-(3-(methoxymethyl)-1H-1,2,4-triazol-5-yl)-1H-pyrazolo[3,4-b]pyridine], the EC50 fell in the range of 100 to 1000 nM. On to `Cc1ncc(Cn2nc(-c3nc(C)n[nH]3)c3cccnc32)cn1` [Compound I-113, 3-(3-Methyl-1H-1,2,4-triazol-5-yl)-1-((2-methylpyrimidin-5yl)methyl)-1H-pyrazolo[3,4-b]pyridine], for which the EC50 is less than 100 nM.

With `NCc1n[nH]c(-c2nn(Cc3ccccc3F)c3ncccc23)n1` [Compound I-115, (5-(1-(2-fluorobenzyl)-1H-pyrazolo[3,4-b]pyridin-3-yl)-1H-1,2,4-triazol-3-yl)methanamine], the EC50 was in the range of 100 to 1000 nM. The value for `COCCC(O)c1n[nH]c(-c2nn(Cc3ccccc3F)c3ncccc23)n1` (centres unmarked) [Compound I-116, 1-(5-(1-(2-fluorobenzyl)-1H-pyrazolo[3,4-b]pyridin-3-yl)-1H-1,2,4-triazol-3-yl)-3-methoxypropan-1-ol] was 100 to 1000 nM. With `C=COCc1n[nH]c(-c2nn(Cc3ccccc3F)c3ncccc23)n1` [Compound I-117], the EC50 was in the range of 100 to 1000 nM. In the case of `Fc1cccc(Cc2nn(-c3nc(C(F)(F)F)n[nH]3)c3cccnc23)c1` [Compound I-120, 3-(3-Fluorobenzyl)-1-(3-(trifluoromethyl)-1H-1,2,4-triazol-5-yl)-1H-pyrazolo[4,3-b]pyridine], the EC50 was in the range of 100 to 1000 nM. Turning to `Fc1cc(F)cc(Cc2nn(-c3nc(C(F)(F)F)n[nH]3)c3cccnc23)c1` [Compound I-121, 3-(3,5-Difluorobenzyl)-1-(3-(trifluoromethyl)-1H-1,2,4-triazol-5-yl)-1H-pyrazolo[4,3-b]pyridine], the EC50 was 100 to 1000 nM. Turning to `Fc1cccc(Cc2nn(-c3nc(C(F)F)n[nH]3)c3cccnc23)c1` [Compound I-122, 1-(3-(Difluoromethyl)-1H-1,2,4-triazol-5-yl)-3-(3-fluorobenzyl)-1H-pyrazolo[4,3-b]pyridine], the EC50 fell in the range of 100 to 1000 nM. For `Fc1cc(F)cc(Cc2nn(-c3nc(C(F)F)n[nH]3)c3cccnc23)c1` [Compound I-123, 3-(3,5-Difluorobenzyl)-1-(3-(difluoromethyl)-1H-1,2,4-triazol-5-yl)-1H-pyrazolo[4,3-b]pyridine], the EC50 fell in the range of 100 to 1000 nM. Turning to `CC(=O)NCc1n[nH]c(-c2nn(Cc3ccccc3F)c3ncccc23)n1` [Compound I-124, N-((5-(1-(2-fluorobenzyl)-1H-pyrazolo[3,4-b]pyridin-3-yl)-1H-1,2,4-triazol-3-yl)methyl)acetamide], the EC50 lay in the range of 100 to 1000 nM. As to `O=C1CCC(=O)N1Cc1n[nH]c(-c2nn(Cc3ccccc3F)c3ncccc23)n1` [Compound I-125, 1-((5-(1-(2-fluorobenzyl)-1H-pyrazolo[3,4-b]pyridin-3-yl)-1H-1,2,4-triazol-3-yl)methyl)pyrrolidine-2,5-dione], the EC50 fell in the range of 100 to 1000 nM. The value for `O=C(CC(F)(F)F)Nc1n[nH]c(-c2nn(Cc3ccccc3F)c3ncccc23)n1` [Compound I-126] was greater than 1000 nM. Take `FC(F)(F)c1n[nH]c(-n2nc(Cc3ccccc3)c3ncccc32)n1` [Compound I-128, 3-Benzyl-1-(3-(trifluoromethyl)-1H-1,2,4-triazol-5-yl)-1H-pyrazolo[4,3-b]pyridine]: the EC50 fell in the range of 100 to 1000 nM. As to `FC(F)c1n[nH]c(-n2nc(Cc3ccccc3)c3ncccc32)n1` [Compound I-129], the EC50 is greater than 1000 nM.
